The values that follow come from patent US8822517B2, “Arylosulfonamides for the treatment of CNS diseases” (Adamed SP. Z O.O., priority 2010, dated 2014).

Each structure is given as a SMILES string.

Assay [1] concerns the target serotoninergic 5-HT6 receptor (Homo sapiens, UniProt P50406). Description: Binding assay 5-HT6 (h), [3H]LSD, CHO cells. The arrangement: expressed in transfected cells; host or cells: CHO cells. The conditions noted are these: read-out: 5-HT6. In short, it runs like this:
(§1)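 Compounds were screened at 1×10^−6 M, and bound radioactivity was measured by scintillation counting. Specific binding equals total binding minus nonspecific binding obtained with an excess of unlabelled ligand.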

Assay [2] deals with T1, serotonine transporter (SERT) receptor (Homo sapiens, UniProt P31645).
T1 construct: expressed in transfected cells; host or cells: CHO cells
T1 sequence (P31645 whole entry): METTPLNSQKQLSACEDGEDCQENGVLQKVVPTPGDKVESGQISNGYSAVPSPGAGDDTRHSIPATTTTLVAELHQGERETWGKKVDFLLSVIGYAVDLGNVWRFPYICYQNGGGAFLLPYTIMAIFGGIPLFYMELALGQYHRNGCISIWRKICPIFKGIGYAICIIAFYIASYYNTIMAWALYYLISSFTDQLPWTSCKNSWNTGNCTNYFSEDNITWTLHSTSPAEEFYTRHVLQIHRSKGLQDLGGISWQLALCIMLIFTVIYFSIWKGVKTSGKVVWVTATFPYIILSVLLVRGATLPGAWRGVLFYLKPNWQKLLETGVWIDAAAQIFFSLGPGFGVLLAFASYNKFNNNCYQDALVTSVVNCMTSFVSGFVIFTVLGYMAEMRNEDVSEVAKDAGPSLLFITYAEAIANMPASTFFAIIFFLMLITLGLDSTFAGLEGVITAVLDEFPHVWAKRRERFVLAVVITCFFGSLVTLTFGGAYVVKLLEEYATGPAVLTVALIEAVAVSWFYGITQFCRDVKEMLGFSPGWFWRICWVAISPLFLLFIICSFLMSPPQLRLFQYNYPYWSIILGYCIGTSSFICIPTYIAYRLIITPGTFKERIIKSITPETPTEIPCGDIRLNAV
The assay can be described thus: Binding assay SERT (h), [3H]imipramine, CHO cells. The following applies: read-out: SERT [%]. The essentials: as §1

The target of assay [3] is serotoninergic 5-HT2A receptor (Homo sapiens, UniProt P28223). Description: Binding assay 5-HT2A (h), [3H]ketanserin, HEK-293 cells. Also on record: expressed in transfected cells; host or cells: HEK-293 cells. The following applies: read-out: 5-HT2A. In short, it runs like this:
as §1

The target of the next assay is dopaminergic D3 receptor (Homo sapiens, UniProt P35462). Description: Binding assay D3 (h), [3H]methyl-spiperone, CHO cells. Also on record: expressed in transfected cells; host or cells: CHO cells. The following applies: read-out: D3 [%]. In short, it runs like this: as §1
Sequence of dopaminergic D3 receptor (P35462 whole entry): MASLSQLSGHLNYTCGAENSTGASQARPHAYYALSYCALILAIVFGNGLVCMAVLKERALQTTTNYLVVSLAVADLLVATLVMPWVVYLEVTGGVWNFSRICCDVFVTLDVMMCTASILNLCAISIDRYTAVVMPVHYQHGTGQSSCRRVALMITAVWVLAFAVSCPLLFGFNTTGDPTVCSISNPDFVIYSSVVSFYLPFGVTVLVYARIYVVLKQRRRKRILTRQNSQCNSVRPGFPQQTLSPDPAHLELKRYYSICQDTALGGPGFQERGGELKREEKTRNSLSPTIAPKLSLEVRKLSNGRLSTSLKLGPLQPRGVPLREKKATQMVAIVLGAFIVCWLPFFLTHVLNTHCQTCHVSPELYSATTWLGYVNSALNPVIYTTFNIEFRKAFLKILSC
The target of assay [4] is serotoninergic 5-HT7 receptor (Homo sapiens, UniProt P34969). Description: Binding assay 5-HT7 (h), [3H]LSD, CHO cells. Also on record: expressed in transfected cells; host or cells: CHO cells. The conditions noted are these: read-out: 5-HT7. The essentials: as §1
Sequence of serotoninergic 5-HT7 receptor (P34969 whole entry): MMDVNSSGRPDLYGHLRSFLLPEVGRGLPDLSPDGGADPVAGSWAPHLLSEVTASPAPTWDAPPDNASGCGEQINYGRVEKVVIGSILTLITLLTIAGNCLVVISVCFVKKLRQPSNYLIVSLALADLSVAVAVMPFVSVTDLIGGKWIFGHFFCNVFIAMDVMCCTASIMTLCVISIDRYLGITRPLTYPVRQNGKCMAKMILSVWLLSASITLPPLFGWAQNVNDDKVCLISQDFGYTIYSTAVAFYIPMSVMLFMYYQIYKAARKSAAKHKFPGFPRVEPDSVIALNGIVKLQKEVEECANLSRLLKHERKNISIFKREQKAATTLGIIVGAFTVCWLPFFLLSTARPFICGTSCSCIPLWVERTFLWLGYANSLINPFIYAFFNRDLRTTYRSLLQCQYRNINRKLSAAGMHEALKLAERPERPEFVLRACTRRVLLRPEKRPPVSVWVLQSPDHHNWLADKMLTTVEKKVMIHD
The next assay deals with dopaminergic D2 receptor (Homo sapiens, UniProt P14416). Description: Binding assay D2S (h), [3H]methyl-spiperone, HEK-293 cells. Also on record: expressed in transfected cells; host or cells: HEK-293 cells. The following applies: read-out: D2 [%]. The essentials:
as §1

Assay [5] addresses T2, serotoninergic 5-HT1A receptor (Homo sapiens, UniProt P08908).
T2 sequence (P08908 1-422): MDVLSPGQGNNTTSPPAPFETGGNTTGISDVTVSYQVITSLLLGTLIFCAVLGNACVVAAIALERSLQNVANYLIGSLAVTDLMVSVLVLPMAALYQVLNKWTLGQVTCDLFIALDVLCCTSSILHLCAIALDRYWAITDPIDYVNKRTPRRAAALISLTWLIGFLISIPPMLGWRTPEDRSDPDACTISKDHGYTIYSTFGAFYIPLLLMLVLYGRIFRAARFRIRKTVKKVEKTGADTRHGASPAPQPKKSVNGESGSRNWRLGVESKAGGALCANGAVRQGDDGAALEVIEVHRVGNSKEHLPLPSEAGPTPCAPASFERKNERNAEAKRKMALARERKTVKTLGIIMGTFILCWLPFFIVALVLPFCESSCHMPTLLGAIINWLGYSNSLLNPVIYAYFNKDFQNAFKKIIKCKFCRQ
Description: Binding assay 5-HT1A (h), [3H]8-OH-DPAT, HEK-293 cells. The following applies: read-out: 5-HT1A. Also on record: expressed in transfected cells; host or cells: HEK-293 cells. The essentials:
as §1

For a further assay, the system named is adrenergic α1 receptor. The assay can be described thus: Binding assay α1 (non-selective), [3H]prazosin, rat cerebral cortex. The following applies: percent inhibition of control specific binding; compounds tested at 1×10^−6 M. In short, it runs like this:
as §1

Sequence of dopaminergic D2 receptor (P14416 1-414 isoform P14416-2): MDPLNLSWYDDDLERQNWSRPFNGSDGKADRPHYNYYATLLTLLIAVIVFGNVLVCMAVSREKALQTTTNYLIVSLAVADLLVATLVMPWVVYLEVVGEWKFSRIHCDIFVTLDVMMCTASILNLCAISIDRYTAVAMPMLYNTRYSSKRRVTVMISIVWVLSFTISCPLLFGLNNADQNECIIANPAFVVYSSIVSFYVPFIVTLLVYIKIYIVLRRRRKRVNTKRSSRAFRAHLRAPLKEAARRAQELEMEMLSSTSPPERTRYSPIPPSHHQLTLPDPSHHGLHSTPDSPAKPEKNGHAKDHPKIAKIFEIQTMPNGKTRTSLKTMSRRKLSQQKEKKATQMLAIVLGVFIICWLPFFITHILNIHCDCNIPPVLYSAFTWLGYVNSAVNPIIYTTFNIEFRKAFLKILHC
Sequence of serotoninergic 5-HT2A receptor (P28223 whole entry): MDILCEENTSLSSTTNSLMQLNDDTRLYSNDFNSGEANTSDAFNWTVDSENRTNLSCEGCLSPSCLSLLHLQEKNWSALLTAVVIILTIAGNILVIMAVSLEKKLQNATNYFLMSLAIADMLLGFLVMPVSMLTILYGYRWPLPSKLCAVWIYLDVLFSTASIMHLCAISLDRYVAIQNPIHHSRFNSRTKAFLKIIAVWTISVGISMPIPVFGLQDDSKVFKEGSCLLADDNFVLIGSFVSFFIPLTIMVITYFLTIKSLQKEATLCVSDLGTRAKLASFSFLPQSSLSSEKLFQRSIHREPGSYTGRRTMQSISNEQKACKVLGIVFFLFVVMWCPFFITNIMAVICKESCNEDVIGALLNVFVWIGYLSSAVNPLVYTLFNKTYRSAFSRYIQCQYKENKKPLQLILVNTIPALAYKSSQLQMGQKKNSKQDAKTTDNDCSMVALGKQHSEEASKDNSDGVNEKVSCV
Sequence of serotoninergic 5-HT6 receptor (P50406 whole entry): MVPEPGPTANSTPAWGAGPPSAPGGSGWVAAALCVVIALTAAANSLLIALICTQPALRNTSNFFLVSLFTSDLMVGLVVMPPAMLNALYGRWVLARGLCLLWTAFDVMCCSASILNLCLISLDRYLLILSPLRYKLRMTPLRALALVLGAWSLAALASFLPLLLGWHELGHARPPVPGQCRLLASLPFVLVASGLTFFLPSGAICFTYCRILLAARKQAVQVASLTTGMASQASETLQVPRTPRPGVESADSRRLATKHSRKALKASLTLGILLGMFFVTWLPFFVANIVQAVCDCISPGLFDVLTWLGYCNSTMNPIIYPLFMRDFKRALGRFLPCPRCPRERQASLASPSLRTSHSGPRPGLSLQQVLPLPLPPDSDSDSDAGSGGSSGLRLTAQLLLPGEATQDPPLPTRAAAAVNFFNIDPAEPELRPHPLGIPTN

As to `N#Cc1cccc(S(=O)(=O)NCCCCN2CCC(c3noc4cc(F)ccc34)CC2)c1` [Compound 306, 3-Cyano-N-[4-[4-(6-fluoro-1,2-benzoxazol-3-yl)piperidin-1-yl]butyl]benzenesulphonamide], the inhibition at 1 µM in assay [1] is 81%; in assay [2], -10%; in assay [3], 97%; on dopaminergic D3 receptor, 99%; in assay [4], 89%; on dopaminergic D2 receptor, 106%. Besides, the inhibition at 1 µM in assay [5] worked out at 44%. The “α1 [%]” value in the assay on adrenergic α1 receptor was 99%.
On to `O=S(=O)(NCCCCN1CCC(c2noc3cc(F)ccc23)CC1)c1ccsc1` [Compound 307, N-[4-[4-(6-Fluoro-1,2-benzoxazol-3-yl)piperidin-1-yl]butyl]thiophene-3-sulphonamide], for which the inhibition at 1 µM is 76% in assay [1]; -3% in assay [2]; 99% in assay [3]; 95% on dopaminergic D3 receptor; 85% in assay [4]; 88% on dopaminergic D2 receptor. Also, the inhibition at 1 µM in assay [5] turned out to be 73%. In the assay with adrenergic α1 receptor, the “α1 [%]” value is given as 105%.
Take `Cc1cc(S(=O)(=O)NCCCCN2CCC(c3noc4cc(F)ccc34)CC2)c(C)s1` [Compound 309, N-[4-[4-(6-Fluoro-1,2-benzoxazol-3-yl)piperidin-1-yl]butyl]-2,5-dimethyl-thiophene-3-sulphonamide]: the inhibition at 1 µM is 79% in assay [1]; -5% in assay [2]; 88% in assay [3]; 90% on dopaminergic D3 receptor; 87% in assay [4]; 84% on dopaminergic D2 receptor. For the same molecule, in assay [5], the inhibition at 1 µM turned out to be 64%. For the same molecule, the “α1 [%]” value in the assay with adrenergic α1 receptor was 103%.
As for `Cn1ccc2c(S(=O)(=O)NCCCCN3CCC(c4noc5cc(F)ccc45)CC3)cccc21` [Compound 310, N-[4-[4-(6-Fluoro-1,2-benzoxazol-3-yl)piperidin-1-yl]butyl]-1-methyl-indole-4-sulphonamide], the inhibition at 1 µM in assay [1] stood at 89%; in assay [2], 57%; in assay [3], 99%; at dopaminergic D3 receptor it was 97%; in assay [4] it was 89%; on dopaminergic D2 receptor it was 96%. The inhibition at 1 µM in assay [5] is 91%. Besides, the “α1 [%]” value in the assay on adrenergic α1 receptor came out at 107%.
Take `Cn1ccc2ccc(S(=O)(=O)NCCCCN3CCC(c4noc5cc(F)ccc45)CC3)cc21` [Compound 311, N-[4-[4-(6-Fluoro-1,2-benzoxazol-3-yl)piperidin-1-yl]butyl]-1-methyl-indole-6-sulphonamide]: the inhibition at 1 µM amounted to 99% in assay [1]; 34% in assay [2]; 105% in assay [3]; 101% at dopaminergic D3 receptor; 95% in assay [4]; 105% at dopaminergic D2 receptor. Moreover, in assay [5], the inhibition at 1 µM is 49%. In the assay with adrenergic α1 receptor, the “α1 [%]” value is 107%.
Regarding `O=S(=O)(NCCCCN1CCC(c2noc3cc(F)ccc23)CC1)c1ccc2c(c1)CCO2` [Compound 317, N-[4-[4-(6-Fluoro-1,2-benzoxazol-3-yl)piperidin-1-yl]butyl]-2,3-dihydrobenzofuran-5-sulphonamide], the inhibition at 1 µM in assay [1] is 78%; in assay [2], -17%; in assay [3] it was 98%; at dopaminergic D3 receptor it was 97%; in assay [4], 89%; on dopaminergic D2 receptor, 105%. In addition, in assay [5], the inhibition at 1 µM stood at 45%. Besides, the “α1 [%]” value in the assay with adrenergic α1 receptor was 99%.
On to `O=S(=O)(NCCCCN1CCC(c2noc3cc(F)ccc23)CC1)c1cccc2scnc12` [Compound 318, N-[4-[4-(6-Fluoro-1,2-benzoxazol-3-yl)piperidin-1-yl]butyl]-1,3-benzothiazole-4-sulphonamide], for which the inhibition at 1 µM in assay [1] is 76%; in assay [2] it was 45%; in assay [3], 89%; on dopaminergic D3 receptor, 95%; in assay [4], 92%; on dopaminergic D2 receptor it was 67%. For the same molecule, in assay [5], the inhibition at 1 µM worked out at 96%. In the assay on adrenergic α1 receptor, the “α1 [%]” value is given as 98%.
Regarding `O=S(=O)(NCCCCN1CCC(c2noc3cc(F)ccc23)CC1)c1ccc2cn[nH]c2c1` [Compound 319, N-[4-[4-(6-Fluoro-1,2-benzoxazol-3-yl)piperidin-1-yl]butyl]-1H-indazole-6-sulphonamide], the inhibition at 1 µM in assay [1] was 87%; in assay [2], 8%; in assay [3], 88%; at dopaminergic D3 receptor, 90%; in assay [4] it was 90%; at dopaminergic D2 receptor, 109%. Also, the inhibition at 1 µM in assay [5] amounted to 55%. The “α1 [%]” value in the assay on adrenergic α1 receptor amounted to 94%.
As for `O=S(=O)(NCCCCN1CCC(c2noc3cc(F)ccc23)CC1)c1cnc2ccccn12` [Compound 322, N-[4-[4-(6-Fluoro-1,2-benzoxazol-3-yl)piperidin-1-yl]butyl]imidazo[1,2-a]pyridine-3-sulphonamide], the inhibition at 1 µM stood at 62% in assay [1]; 16% in assay [2]; 94% in assay [3]; 93% on dopaminergic D3 receptor; 95% in assay [4]; 96% on dopaminergic D2 receptor. Also, in assay [5], the inhibition at 1 µM worked out at 43%. In addition, the “α1 [%]” value with adrenergic α1 receptor stood at 103%.
Consider `O=S(=O)(NCCCCN1CCC(c2noc3cc(F)ccc23)CC1)c1c[nH]c2ncccc12` [Compound 323, N-[4-[4-(6-Fluoro-1,2-benzoxazol-3-yl)piperidin-1-yl]butyl]-1H-pyrrolo[2,3-b]pyridine-3-sulphonamide], for which the inhibition at 1 µM in assay [1] is 92%; in assay [2], 41%; in assay [3], 96%; at dopaminergic D3 receptor, 96%; in assay [4], 93%; at dopaminergic D2 receptor, 105%. For the same molecule, in assay [5], the inhibition at 1 µM amounted to 45%. In the assay on adrenergic α1 receptor, the “α1 [%]” value turned out to be 103%.
On to `O=C1Cc2cc(S(=O)(=O)NCCCCN3CCC(c4noc5cc(F)ccc45)CC3)ccc2N1` [Compound 324, N-[4-[4-(6-Fluoro-1,2-benzoxazol-3-yl)piperidin-1-yl]butyl]-2-oxo-indoline-5-sulphonamide], for which the inhibition at 1 µM was 78% in assay [1]; 37% in assay [2]; 104% in assay [3]; 103% on dopaminergic D3 receptor; 78% in assay [4]; 105% on dopaminergic D2 receptor. Further, the inhibition at 1 µM in assay [5] came to 56%. Further, the “α1 [%]” value with adrenergic α1 receptor was 103%.
As to `O=S(=O)(NCCCN1CCC(c2noc3cc(F)ccc23)CC1)c1ccc(F)cc1` [Compound 326, 4-Fluoro-N-[3-[4-(6-fluoro-1,2-benzoxazol-3-yl)piperidin-1-yl]propyl]benzenesulphonamide], the inhibition at 1 µM is 94% in assay [1]; 19% in assay [2]; 96% in assay [3]; 99% on dopaminergic D3 receptor; 94% in assay [4]; 109% at dopaminergic D2 receptor. Also, in assay [5], the inhibition at 1 µM is 59%. Further, in the assay on adrenergic α1 receptor, the “α1 [%]” value is on record as 101%.
With `O=S(=O)(NCCCN1CCC(c2noc3cc(F)ccc23)CC1)c1ccc(F)c(F)c1` [Compound 327, 3,4-Difluoro-N-[3-[4-(6-fluoro-1,2-benzoxazol-3-yl)piperidin-1-yl]propyl]benzenesulphonamide], the inhibition at 1 µM is 99% in assay [1]; -1% in assay [2]; 91% in assay [3]; 97% at dopaminergic D3 receptor; 86% in assay [4]; 89% at dopaminergic D2 receptor. Moreover, in assay [5], the inhibition at 1 µM worked out at 67%. In addition, the “α1 [%]” value in the assay on adrenergic α1 receptor was 109%.
As for `O=S(=O)(NCCCN1CCC(c2noc3cc(F)ccc23)CC1)c1ccc(Cl)c(Cl)c1` [Compound 329, 3,4-Dichloro-N-[3-[4-(6-fluoro-1,2-benzoxazol-3-yl)piperidin-1-yl]propyl]benzenesulphonamide], the inhibition at 1 µM in assay [1] is 97%; in assay [2], -2%; in assay [3] it was 91%; on dopaminergic D3 receptor it was 99%; in assay [4], 95%; at dopaminergic D2 receptor, 109%. Further, in assay [5], the inhibition at 1 µM turned out to be 69%. Besides, the “α1 [%]” value in the assay with adrenergic α1 receptor is reported as 102%.
